Reference: US20260250290A1 (BRISTOL-MYERS SQUIBB COMPANY, priority 2023, published 2026)

What follows are compounds tested against T1, full length SGK1 (Homo sapiens, UniProt O00141) (assay: SGK1 inhibition Assay A (Caliper LabChip electrophoretic separation of fluorescent peptide substrate and phosphorylated product)). Settings: Assay A; 20 μM ATP, 40 min incubation; read-out: SGK1 IC50.
T1 construct: 125 μM full length SGK1 (Life Technologies Part #PR7358A); purchased Life Technologies PR7358A
T1 sequence (O00141 1-431): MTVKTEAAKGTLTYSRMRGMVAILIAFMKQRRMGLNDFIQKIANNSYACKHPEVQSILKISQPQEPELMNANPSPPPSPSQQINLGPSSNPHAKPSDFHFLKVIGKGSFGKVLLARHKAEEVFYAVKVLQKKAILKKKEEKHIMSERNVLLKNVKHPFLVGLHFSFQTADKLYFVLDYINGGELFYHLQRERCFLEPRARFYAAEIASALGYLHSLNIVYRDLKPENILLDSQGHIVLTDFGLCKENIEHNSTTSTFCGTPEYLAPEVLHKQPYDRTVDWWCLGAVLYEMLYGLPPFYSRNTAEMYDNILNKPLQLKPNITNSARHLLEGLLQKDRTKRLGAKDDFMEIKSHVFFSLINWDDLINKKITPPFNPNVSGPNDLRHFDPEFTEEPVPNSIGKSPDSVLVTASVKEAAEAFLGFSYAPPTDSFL
Format: biochemical
For `Nc1ncnn2c(-c3cncnc3)cc(N3CCC[C@@H](NC(=O)c4cc5ccccc5s4)C3)c12` [Example 646, (R)-N-(1-(4-amino-7-(pyrimidin-5-yl)pyrrolo[2,1-f][1,2,4]triazin-5-yl)piperidin-3-yl)benzo[b]thiophene-2-carboxamide], the IC50 was 8 nM. Compound `N#Cc1ccc(-c2cc(N3CCC[C@@H](NC(=O)c4nc5ccccc5s4)C3)c3c(N)ncnn23)cn1` [Example 647, (R)-N-(1-(4-amino-7-(6-cyanopyridin-3-yl)pyrrolo[2,1-f][1,2,4]triazin-5-yl)piperidin-3-yl)benzo[d]thiazole-2-carboxamide] has an IC50 of 63 nM. For `N#Cc1ccc(-c2cc(N3CCC[C@@H](NC(=O)c4n[nH]c5ccccc45)C3)c3c(N)ncnn23)cn1` [Example 648, (R)-N-(1-(4-amino-7-(6-cyanopyridin-3-yl)pyrrolo[2,1-f][1,2,4]triazin-5-yl)piperidin-3-y1)-1H-indazole-3-carboxamide], the IC50 was 104 nM. `N#Cc1ccc(-c2cc(N3CCC[C@@H](NC(=O)c4cc5ccccc5o4)C3)c3c(N)ncnn23)cn1` [Example 649] gave an IC50 of 6 nM. For `N#Cc1ccc(-c2cc(N3CCC[C@@H](NC(=O)c4nc5ccccc5o4)C3)c3c(N)ncnn23)cn1` [Example 650, (R)-N-(1-(4-amino-7-(6-cyanopyridin-3-yl)pyrrolo[2,1-f][1,2,4]triazin-5-yl)piperidin-3-yl)benzo[d]oxazole-2-carboxamide], the IC50 was 54 nM. Work on `COC(=O)N1CC=C(c2cc(N3CCC[C@@H](NC(=O)c4sc5ccccc5c4OC4CCN(C(=O)OC(C)(C)C)CC4)C3)c3c(N)ncnn23)C1` [Example 651, ter-butyl (R)-4-((2-((1-(4-amino-7-(1-(methoxycarbonyl)-2,5-dihydro-1H-pyrrol-3-yl)pyrrolo[2,1-f][1,2,4]triazin-5-yl)piperidin-3-yl)carbamoyl)benzo[b]thiophen-3-yl)oxy)piperidine-1-carboxylate] yielded an IC50 of 100 nM. `COC(=O)N1CC=C(c2cc(N3CCC[C@@H](NC(=O)c4sc5ccccc5c4OC4CCNCC4)C3)c3c(N)ncnn23)C1` [Example 652, methyl (R)-3-(4-amino-5-(3-(3-(piperidin-4-yloxy)benzo[b]thiophene-2-carboxamido)piperidin-1-yl)pyrrolo[2,1-f][1,2,4]triazin-7-yl)-2,5-dihydro-1H-pyrrole-1-carboxylate] was tested, and the IC50 was 10 nM. `CC(=O)N1CC=C(c2cc(N3CCC[C@@H](NC(=O)c4sc5ccccc5c4OC4CCN(C(=O)OC(C)(C)C)CC4)C3)c3c(N)ncnn23)C1` [Example 653, tert-butyl (R)-4-((2-((1-(7-(1-acetyl-2,5-dihydro-1H-pyrrol-3-yl)-4-aminopyrrolo[2,1-f][1,2,4]triazin-5-yl)piperidin-3-yl)carbamoyl)benzo[b]thiophen-3-yl)oxy)piperidine-1-carboxylate] gave an IC50 of 51 nM. Compound `CC(C)(C)OC(=O)N1CCC(Oc2c(C(=O)N[C@@H]3CCCN(c4cc(-c5ccc(C#N)nc5)n5ncnc(N)c45)C3)sc3ccccc23)CC1` [Example 654, tert-butyl (R)-4-((2-((1-(4-amino-7-(6-cyanopyridin-3-yl)pyrrolo[2,1-f][1,2,4]triazin-5-yl)piperidin-3-yl)carbamoyl)benzo[b]thiophen-3-yl)oxy)piperidine-1-carboxylate] has an IC50 of 57 nM. For `CC(=O)N1CC=C(c2cc(N3CCC[C@@H](NC(=O)c4sc5ccccc5c4OC4CCNCC4)C3)c3c(N)ncnn23)C1` [Example 655, (R)—N-(1-(7-(1-acetyl-2,5-dihydro-1H-pyrrol-3-yl)-4-aminopyrrolo[2,1-f][1,2,4]triazin-5-yl)piperidin-3-yl)-3-(piperidin-4-yloxy)benzo[b]thiophene-2-carboxamide], the IC50 was 9 nM. With `N#Cc1ccc(-c2cc(N3CCC[C@@H](NC(=O)c4sc5ccccc5c4OC4CCNCC4)C3)c3c(N)ncnn23)cn1` [Example 656, (R)—N-(1-(4-amino-7-(6-cyanopyridin-3-yl)pyrrolo[2,1-f][1,2,4]triazin-5-yl)piperidin-3-yl)-3-(piperidin-4-yloxy)benzo[b]thiophene-2-carboxamide] the IC50 was 3 nM. `Nc1ncnn2c(-c3cncnc3)cc(N3CCC[C@@H](NC(=O)c4sc5ccccc5c4OC4CCNCC4)C3)c12` [Example 657, (R)—N-(1-(4-amino-7-(pyrimidin-5-yl)pyrrolo[2,1-f][1,2,4]triazin-5-yl)piperidin-3-yl)-3-(piperidin-4-yloxy)benzo[b]thiophene-2-carboxamide] showed an IC50 of 51 nM. For `COC(=O)N1CC=C(c2cc(N3CCC[C@@H](NC(=O)c4sc5ccccc5c4OC4CCN(C)CC4)C3)c3c(N)ncnn23)C1` [Example 658, methyl (R)-3-(4-amino-5-(3-(3-((1-methylpiperidin-4-yl)oxy)benzo[b]thiophene-2-carboxamido)piperidin-1-yl)pyrrolo[2,1-f][1,2,4]triazin-7-yl)-2,5-dihydro-1H-pyrrole-1-carboxylate], the IC50 was 18 nM. `COC(=O)N1CC=C(c2cc(N3CCC[C@@H](NC(=O)c4sc5ccccc5c4OC4CCN(C(C)C)CC4)C3)c3c(N)ncnn23)C1` [Example 659, methyl (R)-3-(4-amino-5-(3-(3-((1-isopropylpiperidin-4-yl)oxy)benzo[b]thiophene-2-carboxamido)piperidin-1-yl)pyrrolo[2,1-f][1,2,4]triazin-7-yl)-2,5-dihydro-1H-pyrrole-1-carboxylate] gave an IC50 of 7 nM. `COC(=O)N1CC=C(c2cc(N3CCC[C@@H](NC(=O)c4sc5ccccc5c4OC4CCN(CCO)CC4)C3)c3c(N)ncnn23)C1` [Example 660, methyl (R)-3-(4-amino-5-(3-(3-((1-(2-hydroxyethyl)piperidin-4-yl)oxy)benzo[b]thiophene-2-carboxamido)piperidin-1-yl)pyrrolo[2,1-f][1,2,4]triazin-7-yl)-2,5-dihydro-1H-pyrrole-1-carboxylate] showed an IC50 of 2 nM. For `COC(=O)N1CC=C(c2cc(N3CCC[C@@H](NC(=O)c4sc5ccccc5c4OCCN(C)C)C3)c3c(N)ncnn23)C1` [Example 661, Methyl (R)-3-(4-amino-5-(3-(3-(2-(dimethylamino)ethoxy)benzo[b]thiophene-2-carboxamido)piperidin-1-yl)pyrrolo[2,1-f][1,2,4]triazin-7-yl)-2,5-dihydro-1H-pyrrole-1-carboxylate], the IC50 was 13 nM. `CC(=O)N1CC=C(c2cc(N3CCC[C@@H](NC(=O)c4sc5ccccc5c4OCCN(C)C)C3)c3c(N)ncnn23)C1` [Example 662, (R)-N-(1-(7-(1-acetyl-2,5-dihydro-1H-pyrrol-3-yl)-4-aminopyrrolo[2,1-f][1,2,4]triazin-5-yl)piperidin-3-yl)-3-(2-(dimethylamino)ethoxy)benzo[b]thiophene-2-carboxamide] showed an IC50 of 16 nM. For `CN(C)CCOc1c(C(=O)N[C@@H]2CCCN(c3cc(-c4ccc(C(N)=O)nc4)n4ncnc(N)c34)C2)sc2ccccc12` [Example 664, (R)-5-(4-amino-5-(3-(3-(2-(dimethylamino)ethoxy)benzo[b]thiophene-2-carboxamido)piperidin-1-yl)pyrrolo[2,1-f][1,2,4]triazin-7-yl)picolinamide], the IC50 was 13 nM. Work on `CN(C)CCOc1c(C(=O)N[C@@H]2CCCN(c3cc(-c4ccc(C#N)nc4)n4ncnc(N)c34)C2)sc2ccncc12` [Example 666, (R)—N-(1-(4-amino-7-(6-cyanopyridin-3-yl)pyrrolo[2,1-f][1,2,4]triazin-5-yl)piperidin-3-yl)-3-(2-(dimethylamino)ethoxy)thieno[3,2-c]pyridine-2-carboxamide] yielded an IC50 of 11 nM. In the case of `COC(=O)N1CC=C(c2cc(N3CCC[C@@H](NC(=O)c4sc5ccncc5c4OCCN(C)C)C3)c3c(N)ncnn23)C1` [Example 668, methyl (R)-3-(4-amino-5-(3-(3-(2-(dimethylamino)ethoxy)thieno [3,2-c]pyridine-2-carboxamido)piperidin-1-yl)pyrrolo[2,1-f] [1,2,4]triazin-7-yl)-2,5-dihydro-1H-pyrrole-1-carboxylate], the IC50 is reported as 21 nM. Work on `CC(=O)N1CC=C(c2cc(N3CCC[C@@H](NC(=O)c4sc5ccncc5c4OCCN(C)C)C3)c3c(N)ncnn23)C1` [Example 669, (R)-N-(1-(7-(1-acetyl-2,5-dihydro-1H-pyrrol-3-yl)-4-aminopyrrolo[2,1-f][1,2,4]triazin-5-yl)piperidin-3-yl)-3-(2-(dimethylamino)ethoxy)thieno [3,2-c]pyridine-2-carboxamide] yielded an IC50 of 22 nM. With `CN(C)CCOc1c(C(=O)N[C@@H]2CCCN(c3cc(-c4ccc(C(N)=O)nc4)n4ncnc(N)c34)C2)sc2ccncc12` [Example 670, (R)-N-(1-(4-amino-7-(6-carbamoylpyridin-3-yl)pyrrolo[2,1-f] [1,2,4]triazin-5-yl)piperidin-3-yl)-3-(2-(dimethylamino)ethoxy)thieno [3,2-c]pyridine-2-carboxamide] the IC50 was 40 nM. `COC(=O)N1CCC(c2cc(N3CCC[C@@H](NC(=O)c4sc5ccccc5c4OC4CN(C(=O)OC(C)(C)C)C4)C3)c3c(N)ncnn23)C1` (stereo partly drawn) [Example 671, methyl 3-(4-amino-5-((R)-3-(3-((1-(tert-butoxycarbonyl)azetidin-3-yl)oxy)benzo[b]thiophene-2-carboxamido)piperidin-1-yl)pyrrolo[2,1-f][1,2,4]triazin-7-yl)pyrrolidine-1-carboxylate] gave an IC50 of 67 nM. `CC(=O)N1CC=C(c2cc(N3CCC[C@@H](NC(=O)c4sc5ccccc5c4OC4CN(C(=O)OC(C)(C)C)C4)C3)c3c(N)ncnn23)C1` [Example 673, tert-butyl (R)-3-((2-((1-(7-(1-acetyl-2,5-dihydro-1H-pyrrol-3-yl)-4-aminopyrrolo [2,1-f][1,2,4]triazin-5-yl)piperidin-3-yl)carbamoyl)benzo[b]thiophen-3-yl)oxy)azetidine-1-carboxylate] gave an IC50 of 96 nM.
